Assay [1] has as its target c-MET receptor tyrosine kinase, GST-c-MET(969-1390) (Homo sapiens, UniProt P08581). Nature of the assay: EPK c-MET profiling assay (LanthaScreen TR-FRET kinase assay). The class given is biochemical. Particulars: 2 μM ATP, 0.3 nM enzyme, 60 minutes at room temperature; end point measurement, repeats can be about two times higher or lower; read-out: c-Met Biochem IC50. How it is done:
The exemplified compounds of the present invention were assayed in an antibody based kinase phosphorylation assay as follows.
EPK c-MET Profiling Assay:
The EPK kinase assay for c-MET receptor tyrosine kinase was developed, using the purified recombinant GST-fusion protein, containing the cytoplasmic domain of the enzyme. GST-c-MET(969-1390) was purified by affinity chromatography.
The kinase assay is based on the LanthaScreen™ technology. LanthaScreen™ is the detection of Time-Resolved Fluorescence Resonance Energy Transfer (TR-FRET) using lanthanide chelates to measure interactions between various binding partners. In a TR-FRET kinase assay, a long-lifetime lanthanide donor species is conjugated to an antibody that specifically binds to a phosphorylated product of a kinase reaction that is labeled with a suitable acceptor fluorophore. This antibody-mediated interaction brings the lanthanide donor and the acceptor into proximity such that resonance energy transfer can take place, resulting in a detectable increase in the FRET signal.
The kinase reactions were performed in 384 well microtiter plates in a total reaction volume of 10.05 μL. The assay plates were prepared with 0.05 μL per well of test compound in the appropriate test concentration, as described under “preparation of compound dilutions”. The reactions were started by combining 5 μL of ATP solution with 5 μL of enzyme-substrate mix (consisting of kinase and substrate). The final concentrations in the kinase reactions were 25 mM Tris/HCl, 1 mM DTT, 0.025% Tween20, 10 μM sodium orthovanadate, 0.25% BSA, 0.5% DMSO, 10 mM MgCl2, 3 mM MnCl2, 2 μM ATP, 50 nM Fluorescein-PolyEAY, and 0.3 nM enzyme. The reactions were incubated for 60 minutes at room temperature and stopped by adding 5 μL of stop buffer (50 mM EDTA, 0.04% NP40, 20 mM Tris/HCl). Subsequently 5 μL of detection mix (50 mM Tris/HCl, 2 mM DTT, 0.05% Tween20, 20 μM sodium orthovanadate, 1% BSA, 1 nM Tb-PY20 antibody) were added to the stopped reactions. After 45 minutes incubation in dark at room temperature, the plates were measured in a Perkinelmer Envision fluorescence reader. The effect of compound on the enzymatic activity was in all assays obtained from the linear progress curves and normally determined from one reading (end point measurement).
These endpoint results should therefore only be seen as an indicator for the activity range, since repeated measurements can result in about two times higher or lower values.

Assay [2] deals with GTL16 cells. Nature of the assay: GTL16 cell viability assay (CellTiter Glo). The class given is cell-based. Particulars: Homo sapiens, GTL 16, GTL16 gastric cancer cells, 24 hours, triplicates, read-out: GTL-16 Proliferation IC50. How it is done: GTL16 cell line is derived from a gastric cancer patient. GTL16 expresses high level of c-Met receptor tyrosine kinase due to the gene amplification.
GTL16 cells were seeded in DMEM medium with 10% FBS and 1% Pene. & Strep. at 5000 cells/well/90 μL in 96 well plate and incubated overnight for attachment at 37° C. in 5% CO2 incubator. 10-fold serials dilutions of compounds were added to the cell as 10 μL/well. The final assay volume was 100 μl/well. The assay plates were incubated at 37° C. in 5% CO2 incubator for 24 hours. […] Briefly, the plates were cooled at room temperature for 10 mins and 100 μl of CellTiter Glo reagent was added into each well. Plates were shaken for 10 mins. The chemiluminescent light unit was read in Envision from Perkin Elmer. All the tests were run at triplicates. The IC50 was calculated using Spotfire software.

The target in assay [3] is T1, human platelet PDE3 (Homo sapiens, UniProt Q14432).
T1 construct: Human platelet PDE3 (partially purified from human platelets); from tissue; host or cells: human platelets
T1 sequence (Q14432 whole entry): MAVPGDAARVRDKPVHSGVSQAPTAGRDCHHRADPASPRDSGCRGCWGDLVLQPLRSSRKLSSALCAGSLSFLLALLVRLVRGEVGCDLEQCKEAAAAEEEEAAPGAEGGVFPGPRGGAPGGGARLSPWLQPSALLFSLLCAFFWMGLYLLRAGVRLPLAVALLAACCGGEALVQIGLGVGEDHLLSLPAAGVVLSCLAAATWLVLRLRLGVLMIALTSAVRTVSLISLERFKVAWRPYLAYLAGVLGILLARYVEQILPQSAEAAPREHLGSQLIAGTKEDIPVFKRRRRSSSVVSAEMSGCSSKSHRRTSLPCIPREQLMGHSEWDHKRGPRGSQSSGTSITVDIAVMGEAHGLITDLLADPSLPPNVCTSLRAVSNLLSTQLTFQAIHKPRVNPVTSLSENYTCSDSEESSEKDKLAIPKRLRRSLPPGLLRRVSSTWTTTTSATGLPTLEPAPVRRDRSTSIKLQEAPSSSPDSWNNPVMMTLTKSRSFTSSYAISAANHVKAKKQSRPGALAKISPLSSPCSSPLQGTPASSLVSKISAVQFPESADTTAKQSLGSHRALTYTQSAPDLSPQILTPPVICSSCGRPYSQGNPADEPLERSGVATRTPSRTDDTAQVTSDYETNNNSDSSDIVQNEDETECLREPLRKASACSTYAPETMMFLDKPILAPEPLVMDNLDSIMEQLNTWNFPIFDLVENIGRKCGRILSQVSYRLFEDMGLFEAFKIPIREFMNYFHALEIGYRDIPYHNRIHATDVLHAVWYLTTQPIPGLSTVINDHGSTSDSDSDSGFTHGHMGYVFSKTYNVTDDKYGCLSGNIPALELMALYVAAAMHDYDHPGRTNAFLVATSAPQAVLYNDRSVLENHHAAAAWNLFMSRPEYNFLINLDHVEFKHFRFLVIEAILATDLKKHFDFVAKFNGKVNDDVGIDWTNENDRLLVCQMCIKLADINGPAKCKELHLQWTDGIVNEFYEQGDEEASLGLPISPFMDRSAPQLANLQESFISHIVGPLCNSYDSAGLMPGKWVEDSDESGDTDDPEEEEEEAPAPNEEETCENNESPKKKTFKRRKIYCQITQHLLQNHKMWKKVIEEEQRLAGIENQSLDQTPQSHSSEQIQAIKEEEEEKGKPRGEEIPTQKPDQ
Nature of the assay: hPDE3 assay ([3H]cAMP scintillation proximity assay). The class given is biochemical. Particulars: human platelet PDE3, [3H]cAMP SPA, 30 min at room temperature. For orientation: In a scintillation proximity assay essentially only radioactivity close to the scintillant gives light.

Each structure is given as a SMILES string. Bounds are passed on as bounds.

Chain of c-MET receptor tyrosine kinase, GST-c-MET(969-1390) (P08581 969-1390): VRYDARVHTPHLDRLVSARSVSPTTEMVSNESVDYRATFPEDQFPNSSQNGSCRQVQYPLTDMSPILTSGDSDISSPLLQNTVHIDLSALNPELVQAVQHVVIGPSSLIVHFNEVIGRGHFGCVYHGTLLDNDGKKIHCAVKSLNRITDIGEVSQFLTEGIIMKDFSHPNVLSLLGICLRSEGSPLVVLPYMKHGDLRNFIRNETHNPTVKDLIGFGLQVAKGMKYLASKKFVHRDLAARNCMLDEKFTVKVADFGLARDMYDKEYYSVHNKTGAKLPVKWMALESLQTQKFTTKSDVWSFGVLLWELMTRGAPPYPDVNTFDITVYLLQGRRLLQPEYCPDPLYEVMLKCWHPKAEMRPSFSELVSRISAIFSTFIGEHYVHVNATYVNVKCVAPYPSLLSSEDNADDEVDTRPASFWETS

For the molecule `C/C(=N\O)c1ccc2nnc(Cc3c(F)cc4ncc(N5CCOCC5)cc4c3F)n2n1` [Example 11, (E)-1-[3-(5,7-Difluoro-3-morpholin-4-yl-quinolin-6-ylmethyl)-[1,2,4]triazolo[4,3-b]pyridazin-6-yl]-ethanone oxime], the results for the IC50 in assay [1], in assay [2] and in assay [3] were 1 nM, 6 nM and > 30000 nM, respectively.
`C/C(=N\O)c1ccc2nnc(Cc3ccc4ncc(-c5cnn(C)c5)cc4c3)n2n1` [Example 12, (E)-1-(3-((3-(1-Methyl-1H-pyrazol-4-yl)quinolin-6-yl)methyl)-[1,2,4]triazolo[4,3-b]pyridazin-6-yl)ethanone oxime]: the IC50 is 0.5 nM in assay [1], 1 nM in assay [2] and 9000 nM in assay [3].
In the case of `C/C(=N\O)c1ccc2nnc(Cc3ccc4ncc(N5CCOCC5)cc4c3)n2n1` [Example 13, (E)-1-(3-((3-Morpholin-4-yl-quinolin-6-yl)methyl)-[1,2,4]triazolo[4,3-b]pyridazin-6-yl)ethanone oxime], the IC50 in assay [1] stood at 2 nM; in assay [2], 10 nM; in assay [3] it was 14000 nM.
The like results for `C/C(=N\O)c1ccc2nnc(Cc3ccc4ncc(N5CCN(C)CC5)cc4c3)n2n1` [Example 14, (E)-1-(3-((3-(4-Methylpiperazin-1-yl)quinolin-6-yl)methyl)-[1,2,4]triazolo[4,3-b]pyridazin-6-yl)ethanone oxime] were, in that order, 3 nM, 2 nM and 25000 nM.
The like results for `C/C(=N\O)c1ccc2nnc(Cc3ccc4ncc(CN5CCOCC5)cc4c3)n2n1` [Example 15, (E)-1-(3-((3-(Morpholin-4-yl-methyl)quinolin-6-yl)methyl)-[1,2,4]triazolo[4,3-b]pyridazin-6-yl)ethanone oxime] were, in that order, 7 nM, 13 nM and > 30000 nM.
In the case of `C/C(=N\O)c1ccc2nnc([C@H](C)c3c(F)cc4ncc(-c5cnn(C)c5)cc4c3F)n2n1` [Example 21-(R), (R,E)-1-(3-(1-(5,7-difluoro-3-(1-methyl-1H-pyrazol-4-yl)quinolin-6-yl)ethyl)-[1,2,4]triazolo[4,3-b]pyridazin-6-yl)ethanone oxime], the values for the IC50 in assay [1], in assay [2] and in assay [3] were 47 nM, 30 nM and 7000 nM, respectively.
In the case of `C/C(=N\O)c1ccc2nnc([C@@H](C)c3c(F)cc4ncc(-c5cnn(C)c5)cc4c3F)n2n1` [Example 21-(S), (S,E)-1-(3-(1-(5,7-difluoro-3-(1-methyl-1H-pyrazol-4-yl)quinolin-6-yl)ethyl)-[1,2,4]triazolo[4,3-b]pyridazin-6-yl)ethanone oxime], the IC50 amounted to 3 nM in assay [1], 7 nM in assay [2] and 4000 nM in assay [3].
As to `C/C(=N\O)c1ccc2nnc(Cc3c(F)cc4ncc(-c5cnn(C)c5)cc4c3F)n2n1` [Example 22, (E)-1-(3-((5,7-Difluoro-3-(1-methyl-1H-pyrazol-4-yl)quinolin-6-yl)methyl)-[1,2,4]triazolo[4,3-b]pyridazin-6-yl)ethanone oxime], the IC50 in assay [1] is 1 nM; in assay [2], 3 nM; in assay [3] it was 21000 nM.
Take `C/C(=N\OCCO)c1ccc2nnc(Cc3c(F)cc4ncc(C5CCCCC5)cc4c3F)n2n1` [Example 25, (E)-1-(3-((3-Cyclohexyl-5,7-difluoroquinolin-6-yl)methyl)-[1,2,4]triazolo[4,3-b]pyridazin-6-yl)ethanone O-2-hydroxyethyl oxime]: the IC50 was 16 nM in assay [1], 12 nM in assay [2] and 3000 nM in assay [3].
The like results for `C/C(=N\O)c1ccc2nnc(Cc3c(F)cc4ncc(C5CCCCC5)cc4c3F)n2n1` [Example 26, (E)-1-(3-((3-Cyclohexyl-5,7-difluoroquinolin-6-yl)methyl)-[1,2,4]triazolo[4,3-b]pyridazin-6-yl)-ethanone oxime] were, in that order, 15 nM, 93 nM and > 30000 nM.
Turning to `C/C(=N\O)c1ccc2nnc(Sc3ccc4ncc(N5CCN(C)CC5)cc4c3)n2n1` [Example 28, (E)-1-(3-((3-(4-Methylpiperazin-1-yl)quinolin-6-yl)sulfanyl)-[1,2,4]triazolo[4,3-b]pyridazin-6-yl)-ethanone oxime], the IC50 was 5 nM in assay [1], 2 nM in assay [2] and > 30000 nM in assay [3].
The like results for `C/C(=N\O)c1ccc2nnc(Sc3ccc4ncc(N5CCC(O)CC5)cc4c3)n2n1` [Example 29, (E)-1-(3-((3-(4-Hydroxypiperidin-1-yl)quinolin-6-yl)sulfanyl)-[1,2,4]triazolo[4,3-b]pyridazin-6-yl)-ethanone oxime] were, in that order, 0.7 nM, 1 nM and > 30000 nM.
The like results for `C/C(=N\O)c1ccc2nnc(Sc3ccc4ncc(NC5CCOCC5)cc4c3)n2n1` [Example 30, (E)-1-(3-((3-((Tetrahydro-2H-pyran-4-yl)amino)quinolin-6-yl)sulfanyl)-[1,2,4]triazolo[4,3-b]pyridazin-6-yl)-ethanone oxime] were, in that order, 0.9 nM, 1 nM and 17000 nM.
The like results for `C/C(=N\O)c1ccc2nnc(Sc3ccc4ncc(CN5CCOCC5)cc4c3)n2n1` [Example 31, (E)-1-(3-((3-(Morpholin-4-yl-methyl)quinolin-6-yl)sulfanyl)-[1,2,4]triazolo[4,3-b]pyridazin-6-yl)-ethanone oxime] were, in that order, 3 nM, 23 nM and > 30000 nM.
As for `CCN(CC)Cc1cnc2ccc(Sc3nnc4ccc(/C(C)=N/O)nn34)cc2c1` [Example 32, (E)-1-(3-((3-((diethylamino)methyl)quinolin-6-yl)sulfanyl)-[1,2,4]triazolo[4,3-b]pyridazin-6-yl)ethanone oxime], the IC50 was 4 nM in assay [1], 256 nM in assay [2] and > 30000 nM in assay [3].

The values above are taken from patent US20130324526A1, “[1,2,4] TRIAZOLO [4,3-B] PYRIDAZINE COMPOUNDS AS INHIBITORS OF THE C-MET TYROSINE KINASE” (NOVARTIS AG, priority 2011, published 2013).
